Data published in article PMC4498954 (Inorganic chemistry, 2010).

Target: methemoglobin (metHb, human hemoglobin, Fe(III) form) (Homo sapiens, UniProt P68871+P69905)
Sequence (P69905 2-142): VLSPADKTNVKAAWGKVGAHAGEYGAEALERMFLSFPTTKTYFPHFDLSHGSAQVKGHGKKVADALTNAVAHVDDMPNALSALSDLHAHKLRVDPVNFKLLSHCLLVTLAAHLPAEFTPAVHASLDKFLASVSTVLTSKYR
Sequence (P68871 2-147): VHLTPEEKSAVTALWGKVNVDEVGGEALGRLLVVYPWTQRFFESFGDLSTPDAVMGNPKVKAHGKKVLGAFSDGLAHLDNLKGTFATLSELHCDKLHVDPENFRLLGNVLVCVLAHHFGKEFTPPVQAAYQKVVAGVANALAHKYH

Q: With `O=NO` [nitrite] as the molecule, how does the Kd read?
A: 1240 ± 500 µM
